Results on one compound are retold here after patent US12187662B2, “FOXM1 inhibitor compositions and methods of using the same” (The Board of Trustees of the University of Illinois, priority 2018, dated 2025).

The assay concerns the target T1, FOXM1 protein (Homo sapiens, UniProt Q08050).
T1 construct: a terbium donor was attached to purified full length FOXM1 through a streptavidin-biotin linker
T1 sequence (Q08050 1-763): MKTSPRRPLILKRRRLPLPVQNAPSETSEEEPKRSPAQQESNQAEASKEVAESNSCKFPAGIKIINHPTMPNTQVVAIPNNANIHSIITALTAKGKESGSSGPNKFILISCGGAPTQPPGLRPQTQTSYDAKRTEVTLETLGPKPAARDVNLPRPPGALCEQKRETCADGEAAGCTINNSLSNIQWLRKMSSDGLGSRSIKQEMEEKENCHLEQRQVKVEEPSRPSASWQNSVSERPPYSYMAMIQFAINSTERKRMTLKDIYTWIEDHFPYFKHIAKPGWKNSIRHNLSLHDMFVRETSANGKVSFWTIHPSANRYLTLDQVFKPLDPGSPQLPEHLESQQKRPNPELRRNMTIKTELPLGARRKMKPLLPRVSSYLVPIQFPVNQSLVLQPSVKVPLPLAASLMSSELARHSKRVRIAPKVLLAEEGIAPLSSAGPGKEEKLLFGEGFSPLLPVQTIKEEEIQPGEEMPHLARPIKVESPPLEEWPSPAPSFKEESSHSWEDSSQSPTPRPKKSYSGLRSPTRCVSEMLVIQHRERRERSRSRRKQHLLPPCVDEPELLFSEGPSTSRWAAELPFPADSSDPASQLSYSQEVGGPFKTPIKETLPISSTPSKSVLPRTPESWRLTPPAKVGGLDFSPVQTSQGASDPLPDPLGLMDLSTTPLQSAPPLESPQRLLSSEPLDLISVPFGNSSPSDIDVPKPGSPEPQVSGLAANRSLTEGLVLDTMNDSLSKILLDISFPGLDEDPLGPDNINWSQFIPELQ
In words: Direct binding of Fl-NB-72 to FOXM1 by tr-FRET. To be noted: direct tr-FRET titration. How it is done:
Direct binding experiments for determination of Kd for Fl-NB-72. […] The Biotin-FOXM1 was diluted to a concentration of 3×(5 nM+1.25 nM SaTb). 5 μL of each of these were mixed on a black Molecular Devices microtiter plate with 5 μL of FRET buffer, so that each component was diluted 3×. Each point was prepared in duplicate, mixed, and incubated for 1 h at room temperature, in the dark. tr-FRET was measured on a Victor X5 microtiter plate reader with settings as given above.

Each structure is given as a SMILES string.

A word on the Kd: it is the free concentration of one partner at which half of the binding sites on the other are occupied at equilibrium, for simple one-to-one binding. Lower therefore signals a tighter complex. Regarding `O=C(NCCCCCCOc1ccc(C(c2ccc(OCCCCCCN3CCCCCC3)cc2)=C2C3C[C@H]4C[C@@H](C3)C[C@H]2C4)cc1)c1ccc(-c2c3ccc(=O)cc-3oc3cc(O)ccc23)c(C(=O)O)c1` [Fl-NB-72, 5-((6-(4-((L′)-((5r,7r)-adamantan-2-ylidene)(4-((6-(azepan-1-yl)hexyl)oxy)phenyl)methyl)phenoxy)hexyl)carbamoyl)-2-(6-hydroxy-3-oxo-3H-xanthen-9-yl)benzoic acid], binding was characterised by a dissociation constant (Kd) of 0.023 µM.
